Measurements taken from US20090220435A1, “TIGHT JUNCTION MODULATING PEPTIDE COMPONENTS FOR ENHANCING MUCOSAL DELIVERY OF THERAPEUTIC AGENTS” (priority 2005, published 2009).

Legend:
[1] = Chemical stability of PN159 (stability indicating HPLC); format: physicochemical; settings: pH 9 and/or elevated temperature, 40 to 50° C.
Procedure: The chemical stability of the PN159 was determined under therapeutically relevant storage conditions. A stability indicating HPLC method was employed. Solutions (50 mM) were stored at various pH (4.0, 7.3, and 9.0) and temperature (5° C., 25° C., 35° C., 40° C., and 50° C.) conditions. Samples at pH 4 contained 10 mM citrate buffer. Samples at pH 7.3 and 9.0 contained 10 mM phosphate buffer. Representative storage stability data (including the Arrhenius plot) are depicted in FIG. 6. […] For example, at 5° C. and pH 4.0 or pH7.3, there was essentially 100% recovery of PN159 for six month storage. […] The pH range of 4.0 to 7.3 and the temperature range of refrigerated to ambient are most relevant for intranasal formulations.
The chemical stability of the PN159 was determined under therapeutically relevant storage conditions. A stability indicating HPLC method was employed. Solutions (50 mM) were stored at various pH (4.0, 7.3, and 9.0) and temperature (5° C., 25° C., 35° C., 40° C., and 50° C.) conditions. Samples at pH 4 contained 10 mM citrate buffer. Samples at pH 7.3 and 9.0 contained 10 mM phosphate buffer. […] For example, at 5° C. and pH 4.0 or pH 7.3, there was essentially 100% recovery of PN159 for six month storage. […]
The chemical stability of the PN159 was determined under therapeutically relevant storage conditions. […]

[2] = test system: EpiAirway™ human-derived tracheal/bronchial epithelial cells; assay: Cytotoxicity (LDH assay); format: cell-based
[3] = test system: EpiAirway™ human-derived tracheal/bronchial epithelial cells; assay: Transepithelial electrical resistance (TER) across EpiAirway epithelial cell layer; format: cell-based

Which results are given for CC(C)C[C@H](NC(=O)[C@H](C)NC(=O)[C@H](CCCCN)NC(=O)[C@H](CC(C)C)NC(=O)[C@H](C)NC(=O)[C@H](CC(C)C)NC(=O)[C@H](CCCCN)NC(=O)[C@H](CC(C)C)NC(=O)[C@H](C)NC(=O)[C@H](CC(C)C)NC(=O)[C@@H](N)CCCCN)C(=O)N[C@@H](CCCCN)C(=O)N[C@@H](C)C(=O)N[C@@H](C)C(=O)N[C@@H](CC(C)C)C(=O)N[C@@H](CCCCN)C(=O)N[C@@H](CC(C)C)C(=O)N[C@@H](C)C(N)=O [PN159]?
chemical stability [1]: rapid deterioration; % Triton-X LDH Release ([2]; 25 μM, 1 h): 31%; cytotoxicity (LDH) ([2]; 25-100 μM PN159 with 2 mg/ml PTH): no significant cytotoxicity; LDH15 ([2]; 15 minute treatment at the peptide's optimal concentration): 0.007; LDH60 ([2]; 60 minute treatment at the peptide's optimal concentration): 0.002; TER reduction ([3]; 1 μM peptide): 54%; TER reduction ([3]; 2.5 μM peptide): 79%; TER reduction ([3]; 10 μM peptide): 89%; TER reduction ([3]; 25 μM peptide): 94%; % T0 TER ([3]; 25 μM, 1 h, pH 7): 7%; TER in the presence of galantamine ([3]; 40 mg/ml galantamine lactate, 25, 50, 100 μM PN159, pH 5.0): reduced TER; TER reduction ([3]; PN159 25, 50, 100 μM with 2 mg/ml PTH, pH 4.5): more than 80%; Relative TER Decrease ([3]; relative to PN159 = 1.0): 1.0
